Results published in ChEMBL document CHEMBL1137415, “Structure-activity relationship of 6-methylidene penems bearing 6,5 bicyclic heterocycles as broad-spectrum beta-lactamase inhibitors: evidence for 1,4-thiazepine intermediates with C7 R stereochemistry by computational methods” (J Med Chem, 2006).
In brackets after ≈: the same amount, converted by molar mass.

How the values were obtained:
Serratia marcescens = assay: Antibacterial activity against Serratia marcescens expressing AmpC and Smel; format: functional
[1] = molecular target: Metallo-beta-lactamase type 2 (Bacteroides fragilis, UniProt P25910); assay: Inhibition of Bacteroides fragilis CcrA
Chain of Metallo-beta-lactamase type 2 (P25910 whole entry): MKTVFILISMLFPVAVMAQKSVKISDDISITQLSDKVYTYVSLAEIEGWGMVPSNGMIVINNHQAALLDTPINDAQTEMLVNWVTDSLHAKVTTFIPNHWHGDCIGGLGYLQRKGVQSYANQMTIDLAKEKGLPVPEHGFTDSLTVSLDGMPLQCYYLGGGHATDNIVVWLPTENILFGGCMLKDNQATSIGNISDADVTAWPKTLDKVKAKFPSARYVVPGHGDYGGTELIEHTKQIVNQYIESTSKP

Enterobacter cloacae = assay: Antibacterial activity against Enterobacter cloacae expressing P99; format: functional
Beta-lactamase TEM = Beta-lactamase TEM (Escherichia coli, UniProt P62593); assay: Inhibition of Escherichia coli TEM1
Chain of Beta-lactamase TEM (P62593 whole entry): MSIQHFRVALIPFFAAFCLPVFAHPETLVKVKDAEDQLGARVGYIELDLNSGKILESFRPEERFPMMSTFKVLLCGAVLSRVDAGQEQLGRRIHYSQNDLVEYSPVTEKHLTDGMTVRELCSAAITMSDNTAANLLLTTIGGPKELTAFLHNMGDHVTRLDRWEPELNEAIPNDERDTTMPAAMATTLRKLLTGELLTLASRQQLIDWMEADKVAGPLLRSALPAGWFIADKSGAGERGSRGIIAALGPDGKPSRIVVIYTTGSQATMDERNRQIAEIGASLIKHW

[2] = molecular target: T1, Imipenem-hydrolyzing beta-lactamase (Enterobacter cloacae, UniProt P52663); assay: Inhibition of Enterobacter cloacae Imi1
T1 sequence (P52663 whole entry): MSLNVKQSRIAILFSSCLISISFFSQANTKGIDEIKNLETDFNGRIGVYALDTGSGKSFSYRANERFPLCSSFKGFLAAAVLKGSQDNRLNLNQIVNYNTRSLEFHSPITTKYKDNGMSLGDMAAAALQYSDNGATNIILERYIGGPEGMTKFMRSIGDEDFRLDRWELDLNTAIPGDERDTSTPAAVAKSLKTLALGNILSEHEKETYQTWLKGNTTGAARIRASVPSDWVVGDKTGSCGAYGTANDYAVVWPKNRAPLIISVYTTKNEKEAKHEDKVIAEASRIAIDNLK

Beta-lactamase = Beta-lactamase (Enterobacter cloacae, UniProt P05364)
Chain of Beta-lactamase (P05364 whole entry): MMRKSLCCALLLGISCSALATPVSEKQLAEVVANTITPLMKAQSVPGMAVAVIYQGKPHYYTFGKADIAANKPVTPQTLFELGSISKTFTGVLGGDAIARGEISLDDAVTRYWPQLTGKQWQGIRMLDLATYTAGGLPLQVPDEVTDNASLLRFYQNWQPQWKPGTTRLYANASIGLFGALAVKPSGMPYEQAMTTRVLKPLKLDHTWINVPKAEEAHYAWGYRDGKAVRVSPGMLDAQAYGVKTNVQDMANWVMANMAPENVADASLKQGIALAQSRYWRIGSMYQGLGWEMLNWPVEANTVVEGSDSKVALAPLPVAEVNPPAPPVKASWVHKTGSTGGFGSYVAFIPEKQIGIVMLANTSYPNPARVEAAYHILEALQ
Description: Inhibition of Enterobacter cloacae AmpC

Pseudomonas aeruginosa = assay: Antibacterial activity against Pseudomonas aeruginosa expressing AmpC; format: functional
[3] = molecular target: Beta-lactamase TEM (Escherichia coli) (UniProt P62593); assay: Antibacterial activity against Escherichia coli expressing TEM1; format: functional
Chain of Beta-lactamase TEM (Escherichia coli) (P62593 whole entry): as the sequence (P62593 whole entry) above

Escherichia coli [4] = assay: Antibacterial activity against Escherichia coli expressing TEM1 in iv dosed murine acute lethal infection model in presence of piperacillin; format: functional
[5] = Inhibition of SHV1
[6] = Inhibition of GC1
Klebsiella aerogenes [7] = assay: Antibacterial activity against Enterobacter aerogenes expressing AmpC in iv dosed murine acute lethal infection model in presence of piperacillin; format: functional
Escherichia coli [8] = assay: Antibacterial activity against Escherichia coli expressing TEM1 in iv dosed murine acute lethal infection model; format: functional
Klebsiella aerogenes [9] = assay: Antibacterial activity against Enterobacter aerogenes expressing AmpC in iv dosed murine acute lethal infection model; format: functional

Row | SMILES | MIC (Serratia marcescens) [µg/mL] | IC50 [1] [nM] | MIC (Enterobacter cloacae) [µg/mL] | IC50 (Beta-lactamase TEM) [nM] | IC50 [2] [nM] | IC50 (Beta-lactamase) [nM] | MIC (Pseudomonas aeruginosa) [µg/mL] | MIC [3] [µg/mL] | ED50 (Escherichia coli [4]) [mg/kg] | IC50 [5] [nM] | IC50 [6] [nM] | ED50 (Klebsiella aerogenes [7]) [mg/kg] | ED50 (Escherichia coli [8]) [mg/kg] | ED50 (Klebsiella aerogenes [9]) [mg/kg]
1 | O=C([O-])C1=CS[C@@H]2/C(=C\c3cn4c(n3)CSCC4)C(=O)N12.[Na+] | 8 | 8 | 8 | 3 | 2300 | 2 | 8 | 8 | – | – | – | – | – | –
2 | O=C([O-])C1=CS[C@@H]2/C(=C/c3cn4c(n3)CNCC4)C(=O)N12.[Na+] | 1 | 320 | 2 | 5 | 28 | 6 | 16 | 2 | 27 | – | – | – | – | –
3 | O=C([O-])C1=CS[C@@H]2/C(=C\c3cc4n(n3)CCOC4)C(=O)N12.[Na+] | 1 | – | 8 | 4 | 20 | 6 | 2 | 4 | 19 | – | – | – | – | –
4 | O=C([O-])C1=CS[C@@H]2/C(=C\c3cc4n(n3)CCS(=O)(=O)C4)C(=O)N12.[Na+] | 1 | 43 | 16 | 1 | 56 | 2 | 2 | 4 | 64 | – | – | – | – | –
5 | O=C([O-])C1=CS[C@@H]2/C(=C\c3cc4n(n3)CCNC4)C(=O)N12.[Na+] | 1 | – | 16 | 1 | 123 | 3 | 0.5 | 4 | 30 | – | – | – | – | –
6 | O=C([O-])C1=CS[C@@H]2/C(=C/c3cn4c(n3)COCC4)C(=O)N12.[Na+] | 1 | 66 | 8 | 0.4 | 8 | 5 | 1 | 2 | 23 | 9 | 6.2 | 96 | – | –
7 | O=C([O-])C1=CS[C@@H]2/C(=C/c3cn4c(n3)CSCC4)C(=O)N12.[Na+] | 4 | 110 | 32 | 730 | > 10000 | 420 | 64 | 64 | – | – | – | – | – | –
8 | O=C([O-])C1=CS[C@@H]2/C(=C\c3cc4n(n3)CCCO4)C(=O)N12.[Na+] | 1 | 140 | 4 | 6 | 413 | 5 | 1 | 4 | 90 | – | – | – | – | –
9 | O=C([O-])C1=CS[C@@H]2/C(=C\c3cc4c(s3)CCN(Cc3cccnc3)C4)C(=O)N12.[Na+] | 1 | – | 64 | 10 | 40 | – | 64 | 32 | – | – | – | – | – | –
10 | CCN1CCN(C(=O)NC(C(=O)N[C@@H]2C(=O)N3C2SC(C)(C)[C@@H]3C(=O)O)c2ccccc2)C(=O)C1=O (single isomer, unassigned) [PIPERACILLIN] | – | – | – | – | – | – | – | – | – | – | – | – | 165 | 421
11 | O=C([O-])C1=CS[C@@H]2/C(=C\c3cc4n(n3)CCSC4)C(=O)N12.[Na+] | 0.5 | – | 8 | – | 18 | 1 | 2 | 4 | 31 | – | – | 123 | – | –
12 | COc1ccc(CN2CCc3sc(/C=C4/C(=O)N5C(C(=O)[O-])=CS[C@H]45)cc3C2)cc1.[Na+] | 1 | 78 | 32 | 2 | 27 | 15 | 32 | 8 | – | – | – | – | – | –
13 | C[C@]1(Cn2ccnn2)[C@H](C(=O)O)N2C(=O)C[C@H]2S1(=O)=O [TAZOBACTAM] | 1 (≈ 3.33 µM) | – | 64 (≈ 213 µM) | – | – | – | 64 (≈ 213 µM) | 2 (≈ 6.66 µM) | – | – | – | – | – | –
14 | CN1CCn2cc(/C=C3/C(=O)N4C(C(=O)[O-])=CS[C@H]34)nc2C1.[Na+] | 1 | – | 1 | 4 | 22 | 6 | 4 | 16 | – | – | – | – | – | –
15 | O=C([O-])C1=CS[C@@H]2/C(=C\c3cc4n(n3)CCCC4)C(=O)N12.[Na+] | 1 | – | 4 | 2 | 90 | 3 | 4 | 2 | 28 | – | – | 86 | – | –
